The target in the assay is T1, Cbl-b (truncated variant, UniProt number Q13191) (Homo sapiens, UniProt Q13191).
T1 construct: made in house
In words: Cbl-b activity assay (TR-FRET, interaction of Cbl-b with UbcH5B-Ub). In kind it is biochemical. Background: Time-resolved FRET reads energy transfer from a long-lived donor to a nearby acceptor.

Setting [1] is: Biological Example 1A, low or high conditions not stated, read-out: IC50 values in the Cbl-b inhibition assay of Biological Example 1A.
Where [2] appears, read: high conditions: 100 mM NaCl, 60 nM Src kinase, 12 nM Cbl-b, read-out: Cbl-b activity IC50.

Where two headings read alike, the source gives them in different places.

T1 sequence (Q13191 36-427): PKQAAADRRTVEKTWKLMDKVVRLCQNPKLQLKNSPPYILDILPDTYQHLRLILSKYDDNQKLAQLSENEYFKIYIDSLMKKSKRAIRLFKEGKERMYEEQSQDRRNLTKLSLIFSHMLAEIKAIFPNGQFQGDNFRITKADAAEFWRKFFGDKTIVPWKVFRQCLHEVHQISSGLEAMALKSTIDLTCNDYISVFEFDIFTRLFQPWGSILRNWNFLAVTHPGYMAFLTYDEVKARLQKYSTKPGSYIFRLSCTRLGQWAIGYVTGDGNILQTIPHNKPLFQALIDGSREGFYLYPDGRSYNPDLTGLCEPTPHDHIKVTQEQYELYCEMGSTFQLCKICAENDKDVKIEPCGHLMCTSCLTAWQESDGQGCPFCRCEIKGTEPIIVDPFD

In the case of `C[C@H](Sc1nncn1C)c1cccc(-n2ncc(-c3cccc(C(N)=O)c3)n2)c1` [Example 95, (S)-3-(2-(3-(1-(4-methyl-4H-1,2,4-triazol-3-ylthio)ethyl)phenyl)-2H-1,2,3-triazol-4-yl)benzamide], the IC50 (usually the concentration needed to halve the response being measured) runs as follows: under setting [1], 100 to 1000 nM; under setting [2], 100 to 1000 nM.

As for `C[C@H](Sc1nncn1C)c1cccc(-n2cc(-c3cccc(C(N)=O)c3)nn2)c1` [Example 96, (S)-3-(1-(3-(1-(4-methyl-4H-1,2,4-triazol-3-ylthio)ethyl)phenyl)-1H-1,2,3-triazol-4-yl)benzamide], the IC50 lay within 1000 to 5000 nM under setting [1] and 1000 to 5000 nM under setting [2].

Take `C[C@H](Sc1nncn1C)c1cccc(-n2ncc(-c3cccc(C#N)c3)n2)c1` [Example 97, (S)-3-(2-(3-(1-(4-methyl-4H-1,2,4-triazol-3-ylthio)ethyl)phenyl)-2H-1,2,3-triazol-4-yl)benzonitrile]: the half-inhibitory concentration (IC50) was in the range of 1000 to 5000 nM under setting [1] and 1000 to 5000 nM under setting [2].

On to `C[C@H](Sc1nncn1C)c1cccc(-n2cc(-c3cccc(C#N)c3)nn2)c1` [Example 98, (S)-3-(1-(3-(1-(4-methyl-4H-1,2,4-triazol-3-ylthio)ethyl)phenyl)-1H-1,2,3-triazol-4-yl)benzonitrile], for which the 50% inhibitory concentration (IC50) was at least 5000 nM under setting [1] and at least 5000 nM under setting [2].

Regarding `C[C@H](Sc1nncn1C)c1cccc(-n2ncc(-c3ccccc3)n2)c1` [Example 99, (S)-2-(3-(1-((4-methyl-4H-1,2,4-triazol-3-yl)thio)ethyl)phenyl)-4-phenyl-2H-1,2,3-triazole], the concentration for half-maximal inhibition (IC50) runs as follows: under setting [1], 100 to 1000 nM; under setting [2], 100 to 1000 nM.

On to `C[C@@H](Sc1nncn1C)c1cccc(-n2ncc(-c3ccccc3)n2)c1` [Example 100, (R)-2-(3-(1-((4-methyl-4H-1,2,4-triazol-3-yl)thio)ethyl)phenyl)-4-phenyl-2H-1,2,3-triazole], for which the IC50 is, setting by setting: under setting [1], at least 5000 nM; under setting [2], at least 5000 nM.

As to `CC(Sc1nncn1C)c1ccnc(-n2ncc(-c3ccccc3)n2)c1` (stereo not shown) [Example 101, 4-(1-((4-methyl-4H-1,2,4-triazol-3-yl)thio)ethyl)-2-(4-phenyl-2H-1,2,3-triazol-2-yl)pyridine], the 50% inhibitory concentration (IC50) is, setting by setting: under setting [1], at least 5000 nM; under setting [2], at least 5000 nM.

As for `C[C@H](Sc1nncn1C)c1cccc(-c2cc(-c3ccccc3)n[nH]2)c1` [Example 102, (S)-4-methyl-3-((1-(3-(3-phenyl-1H-pyrazol-5-yl)phenyl)ethyl)thio)-4H-1,2,4-triazole], the IC50 runs as follows: under setting [1], 100 to 1000 nM; under setting [2], 100 to 1000 nM.

Consider `C[C@@H](Sc1nncn1C)c1cccc(-c2cc(-c3ccccc3)n[nH]2)c1` [Example 103, (R)-4-methyl-3-((1-(3-(3-phenyl-1H-pyrazol-5-yl)phenyl)ethyl)thio)-4H-1,2,4-triazole], for which the IC50 is, setting by setting: under setting [1], at least 5000 nM; under setting [2], at least 5000 nM.

Consider `COc1cccc(-c2cc(-c3cccc(C(C)Sc4nncn4C)c3)[nH]n2)c1` (stereo not shown) [Example 104, 3-((1-(3-(3-(3-methoxyphenyl)-1H-pyrazol-5-yl)phenyl)ethyl)thio)-4-methyl-4H-1,2,4-triazole], for which the 50% inhibitory concentration (IC50) under setting [1] lay in the range of 1000 to 5000 nM and the concentration for half-maximal inhibition (IC50) under setting [2] lay in the range of 1000 to 5000 nM.

Consider `C[C@H](Cc1nncn1C)c1cccc(-c2cc(-c3ccccn3)n[nH]2)c1` [Example 105, (R)-2-(5-(3-(1-(4-methyl-4H-1,2,4-triazol-3-yl)propan-2-yl)phenyl)-1H-pyrazol-3-yl)pyridine], for which, under setting [2], the concentration for half-maximal inhibition (IC50) is 100 to 1000 nM.

Turning to `C[C@H](Cc1nncn1C)c1cccc(-c2cc(-c3ncccn3)n[nH]2)c1` [Example 106, (R)-2-(3-(3-(1-(4-methyl-4H-1,2,4-triazol-3-yl)propan-2-yl)phenyl)-1H-pyrazol-5-yl) pyrimidine], the IC50 under setting [2] is 100 to 1000 nM.

For `C[C@H](Sc1nncn1C)c1cccc(-c2n[nH]c3ccccc23)c1` [Example 107, (S)-3-(3-(1-((4-methyl-4H-1,2,4-triazol-3-yl)thio)ethyl)phenyl)-1H-indazole], the IC50 under setting [2] lay within 100 to 1000 nM.

Regarding `C[C@@H](Sc1nncn1C)c1cccc(-c2n[nH]c3ccccc23)c1` [Example 108, (R)-3-(3-(1-((4-methyl-4H-1,2,4-triazol-3-yl)thio)ethyl)phenyl)-1H-indazole], the half-inhibitory concentration (IC50) was 1000 to 5000 nM under setting [1] and 1000 to 5000 nM under setting [2].

Turning to `C[C@H](Cc1nncn1C)c1cccc(-c2n[nH]c3c(N4CCC(O)CC4)cc(C(F)(F)F)nc23)c1` [Example 109, (R)-1-(3-(3-(1-(4-methyl-4H-1,2,4-triazol-3-yl)propan-2-yl)phenyl)-5-(trifluoromethyl)-1H-pyrazolo[4,3-b]pyridin-7-yl)piperidin-4-ol], the IC50 under setting [2] fell in the range of 100 to 1000 nM.

For `C[C@H](Cc1nncn1C)c1cccc(-c2n[nH]c3c(N4CC(O)C4)cc(C(F)(F)F)nc23)c1` [Example 110, (R)-1-(3-(3-(1-(4-methyl-4H-1,2,4-triazol-3-yl)propan-2-yl)phenyl)-5-(trifluoromethyl)-1H-pyrazolo[4,3-b]pyridin-7-yl)azetidin-3-ol], the half-maximal inhibitory concentration (IC50) under setting [2] was 100 to 1000 nM.

Regarding `C[C@H](Cc1nncn1C)c1cccc(-c2n[nH]c3c(N4CC[C@H](O)C4)cc(C(F)(F)F)nc23)c1` [Example 111, (S)-1-(3-(3-((R)-1-(4-methyl-4H-1,2,4-triazol-3-yl)propan-2-yl)phenyl)-5-(trifluoromethyl)-1H-pyrazolo[4,3-b]pyridin-7-yl)pyrrolidin-3-ol], under setting [2], the IC50 lay within 100 to 1000 nM.

For the molecule `C[C@H](Cc1nncn1C)c1cccc(-c2n[nH]c3c(N4CC[C@@H](O)C4)cc(C(F)(F)F)nc23)c1` [Example 112, (R)-1-(3-(3-((R)-1-(4-methyl-4H-1,2,4-triazol-3-yl)propan-2-yl)phenyl)-5-(trifluoromethyl)-1H-pyrazolo[4,3-b]pyridin-7-yl)pyrrolidin-3-ol], the IC50 under setting [2] lay in the range of 100 to 1000 nM.

In the case of `C[C@H](Cc1nncn1C)c1cccc(-c2n[nH]c3c(CN4CC[C@H](F)C4)cc(C(F)(F)F)nc23)c1` [Example 113, 3-[(2R)-2-[3-(7-[[(3S)-3-fluoropyrrolidin-1-yl]methyl]-5-(trifluoromethyl)-1H-pyrazolo[4,3-b]pyridin-3-yl)phenyl]propyl]-4-methyl-4H-1,2,4-triazole], the IC50 under setting [1] was below 100 nM and the IC50 under setting [2] was below 100 nM.

Take `C[C@H](Cc1nncn1C)c1cccc(-c2n[nH]c3ccc(C(F)(F)F)nc23)c1` [Example 116, (R)-3-(3-(1-(4-methyl-4H-1,2,4-triazol-3-yl)propan-2-yl)phenyl)-5-(trifluoromethyl)-1H-pyrazolo[4,3-b]pyridine]: the concentration for half-maximal inhibition (IC50) lay within 100 to 1000 nM under setting [1] and 100 to 1000 nM under setting [2].

Take `C[C@H](Cc1nncn1C)c1cccc(-c2n[nH]c3c(N4CCC(O)CC4)ccnc23)c1` [Example 117, (R)-1-(3-(3-(1-(4-methyl-4H-1,2,4-triazol-3-yl)propan-2-yl)phenyl)-1H-pyrazolo[4,3-b]pyridin-7-yl)piperidin-4-ol]: the concentration for half-maximal inhibition (IC50) under setting [2] is 1000 to 5000 nM.

`C[C@H](Cc1nncn1C)c1cccc(-c2n[nH]c3cccnc23)c1` [Example 118, (R)-3-(3-(1-(4-methyl-4H-1,2,4-triazol-3-yl)propan-2-yl)phenyl)-1H-pyrazolo[4,3-b]pyridine]: under setting [2], the IC50 lay in the range of 1000 to 5000 nM.

Consider `Cc1ccc2[nH]nc(-c3cccc([C@H](C)Cc4nncn4C)c3)c2n1` [Example 119, (R)-5-methyl-3-(3-(1-(4-methyl-4H-1,2,4-triazol-3-yl)propan-2-yl)phenyl)-1H-pyrazolo [4,3-b]pyridine], for which, under setting [2], the IC50 is 1000 to 5000 nM.

In the case of `C[C@H](Cc1nncn1C)c1cccc(-c2n[nH]c3cc(C4CCC4)cnc23)c1` [Example 120, (R)-6-cyclobutyl-3-(3-(1-(4-methyl-4H-1,2,4-triazol-3-yl)propan-2-yl)phenyl)-1H-pyrazolo[4,3-b]pyridine], under setting [2], the 50% inhibitory concentration (IC50) lay in the range of 1000 to 5000 nM.

Consider `C[C@H](Sc1nncn1C)c1ccnc(NC(=O)Nc2ccccn2)c1` [Example 121, (S)-1-(4-(1-((4-methyl-4H-1,2,4-triazol-3-yl)thio)ethyl)pyridin-2-yl)-3-(pyridin-2-yl)urea], for which the half-inhibitory concentration (IC50) under setting [2] was at least 5000 nM.

For the molecule `CC(Sc1nncn1C)c1cccc(C(=O)Nc2cc3ccccc3cn2)c1` (stereo not shown) [Example 122, N-(isoquinolin-3-yl)-3-(1-((4-methyl-4H-1,2,4-triazol-3-yl)thio)ethyl)benzamide], the IC50 runs as follows: under setting [1], below 100 nM; (low conditions: 50 mM NaCl, 30 nM Src kinase, 12 nM Cbl-b, read-out: Cbl-b activity IC50) below 100 nM.

With `CC1CN(C(=O)Nc2cccc([C@H](C)Sc3nncn3C)c2)CC(=O)N1C` (stereo partly drawn) [Example 123, 3,4-dimethyl-N-(3-((S)-1-((4-methyl-4H-1,2,4-triazol-3-yl)thio)ethyl)phenyl)-5-oxopiperazine-1-carboxamide], under setting [2], the concentration for half-maximal inhibition (IC50) was at least 5000 nM.

Regarding `C[C@H](Sc1nncn1C)c1cccc(NC(=O)N2CCCCC2)c1` [Example 124, (S)—N-(3-(1-((4-methyl-4H-1,2,4-triazol-3-yl)thio)ethyl)phenyl)piperidine-1-carboxamide], the IC50 under setting [2] is at least 5000 nM.

With `C[C@H](Sc1nncn1C)c1cccc(NC(=O)N2CCc3nocc3C2)c1` [Example 125, (S)—N-(3-(1-((4-methyl-4H-1,2,4-triazol-3-yl)thio)ethyl)phenyl)-6,7-dihydroisoxazolo[4,3-c]pyridine-5(4H)-carboxamide], under setting [2], the half-maximal inhibitory concentration (IC50) is at least 5000 nM.

`C[C@H](Sc1nncn1C)c1cccc(NC(=O)N2CCC23CCN(C)CC3)c1` [Example 126, (S)-7-methyl-N-(3-(1-((4-methyl-4H-1,2,4-triazol-3-yl)thio)ethyl)phenyl)-1,7-diazaspiro[3.5]nonane-1-carboxamide]: under setting [2], the concentration for half-maximal inhibition (IC50) is at least 5000 nM.

Take `C[C@H](Sc1nncn1C)c1cccc(NC(=O)N2CCC(c3ccccc3)C2)c1` (stereo partly drawn) [Example 127, N-(3-((S)-1-((4-methyl-4H-1,2,4-triazol-3-yl)thio)ethyl)phenyl)-3-phenylpyrrolidine-1-carboxamide]: the IC50 under setting [2] is at least 5000 nM.

With `C[C@H](Sc1nncn1C)c1cccc(NC(=O)N2CCOCC2)c1` [Example 128, N-[3-[(1S)-1-[(4-methyl-4H-1,2,4-triazol-3-yl)sulfanyl]ethyl]phenyl]morpholine-4-carboxamide], the IC50 under setting [2] was at least 5000 nM.

These data come from patent publication US12653809B2, “Urea, amide, and substituted heteroaryl compounds for CBL-B inhibition” (Nurix Therapeutics, Inc., priority 2019, dated 2026).
